According to publication PMC8036666, “Biological and Physico-Chemical Characteristics of Arginine-Rich Peptide Gemini Surfactants with Lysine and Cystine Spacers” (International Journal of Molecular Sciences, 2021):
Values after ≈ are worked out from the molar mass of the structure shown. Values joined by “and” are separate entries in the source; they are usually repeats but may differ in a detail not shown here. Identical values can stand only once. Like-named read-outs stand apart in the source and are kept apart here. Where a SMILES comes first, the peptide text is derived from it. The star is where a group is joined. Myristoyl = CCCCCCCCCCCCCC(=O)*; Lauroyl = CCCCCCCCCCCC(=O)*; Decanoyl = CCCCCCCCCC(=O)*; Octanoyl = CCCCCCCC(=O)*

Tests used:
[1] = test system: Pseudomonas aeruginosa ATCC 9027
Description: (§1) The Acinetobacter baumannii ATCC BAA-1605, Enterococcus faecium ATCC 700221, Escherichia coli ML-35 ATCC 43827, Klebsiella aerogenes ATCC 13048, Klebsiella pneumoniae ATCC 700603, Pseudomonas aeruginosa ATCC 9027, Staphylococcus aureus ATCC 25923, Staphylococcus aureus ATCC 33591, Candida albicans ATCC 10231, Candida glabrata ATCC 15126, strains were acquired from the American Type Culture Collection (ATCC). All the strains were stored at −80 °C in Roti-Store cryo vials and before the tests were transferred into fresh Mueller–Hinton broth (MHB, Biocorp, Warsaw, Poland) for bacteria or RPMI-1640 (Sigma-Aldrich, Steinheim, Germany) for fungi and incubated for 24 h at 37 °C. Then, the cultures were seeded on the Mueller–Hinton agar (BioMaxima, Lublin, Poland) or Sabouraud dextrose agar (SDA, BioMaxima, Lublin, Poland) plates, respectively, and incubated as just mentioned. These agar cultures were used for further microbiological assays. Cell densities for all assays were adjusted spectrophotometrically (Multiskan GO Microplate Spectrophotometer, Thermo Fisher Scientific, Vantaa, Finland) at 600 and 530 nm for bacteria and fungi, respectively.
(§2) The MICs were determined by the broth microdilution method according to the Clinical and Laboratory Standard Institute guidelines. […] The experiments were conducted on 96-well microtiter polystyrene plates (Kartell, Noviglio, Italy). The growth was assessed visually after incubation, and the MIC was assumed as the lowest peptide concentration at which a noticeable growth of microorganisms was inhibited. All experiments were conducted in triplicate.

[2] = test system: Klebsiella aerogenes ATCC 13048; conditions: ATCC 13048, 24 h
Description: as §1, §2

[3] = test system: Klebsiella pneumoniae ATCC 700603; conditions: ATCC 700603, 24 h
Description: as §1, §2

[4] = test system: Acinetobacter baumannii ATCC BAA 1605; conditions: ATCC BAA 1605, 24 h
Description: as §1, §2

[5] = test system: Enterococcus faecium ATCC 700221
Description: as §1, §2

[6] = test system: Staphylococcus aureus ATCC 25923
Description: as §1, §2

C. albicans ATCC 10231 = test system: C. albicans ATCC 10231
Description: as §1
(§3) The MICs were determined by the broth microdilution method according to the Clinical and Laboratory Standard Institute guidelines. For this purpose, initial inoculums of bacteria (5 × 10^5 CFU/mL) in MHB and yeasts (2 × 10^3 CFU/mL) in RPMI-1640 with 2% D-glucose were exposed to the ranging concentration of lipopeptides (0.5–256 μg/mL) and incubated at 37 °C for 18 h and 24 h, respectively. The experiments were conducted on 96-well microtiter polystyrene plates (Kartell, Noviglio, Italy). The growth was assessed visually after incubation, and the MIC was assumed as the lowest peptide concentration at which a noticeable growth of microorganisms was inhibited. All experiments were conducted in triplicate.

C. glabrata ATCC 15126 = test system: C. glabrata ATCC 15126
Description: as §1, §3

[7] = Lipopeptide hydrophobicity by RP-HPLC (adjusted retention time); format: physicochemical; conditions: RP-HPLC, 20–65% acetonitrile over 30 min, indicator of hydrophobicity
Description: (§4) The identity of the purified peptides was confirmed with electrospray ionization mass spectrometry (ESI-MS) in positive ion mode. Results of MS analyses and net charge are attached in Supplementary Materials (Table S1). Peptides’ hydrophobicity was evaluated by analytical reversed-phase high-performance liquid chromatography (RP-HPLC). The critical aggregation concentrations (CACs) of the lipopeptides were determined in unbuffered aqueous solution at 298 K by measuring the surface tension as a function of lipopeptide concentration. The measurements were carried out by the Du Noüy ring method on a K100 tensiometer. The surface tension data were plotted against the logarithm of lipopeptide concentration. CAC was found as the intersection of two lines being linear regression of data below and above CAC.
Lipopeptide hydrophobicity was determined as described previously. To do this, a Waters Alliance e2695 system with a Waters 2998 PDA Detector (software-Empower 3, Waters, Milford, MA, USA) was used. All analyses were carried out on a Waters X-Bridge Shield RP-18 column (3.0 × 100 mm, 3.5 μm particle size, 130 Å pore size). The Shield Technology column with embedded polar groups was used to minimize interactions of unreacted silanol groups with basic lipopeptides. The peptides were dissolved in water (0.1% TFA, v/v) up to a concentration of 1 mg/mL. UV detection at 214 nm was used, and samples (10 μL) were eluted with a linear 20–65% acetonitrile gradient in deionized water over 30 min at 25.0 ± 0.1 °C. The mobile phase flow rate was 0.5 mL/min. Both eluents contained 0.1% (v/v) of TFA. Each peptide sample was analyzed in triplicate. The maximum standard deviation and coefficient of variation were 0.044 and 0.85%, respectively.

[8] = Critical aggregation concentration by surface tension (Du Noüy ring, K100 tensiometer); format: physicochemical; conditions: unbuffered aqueous solution, 298 K
Description: as §4
The critical aggregation concentration (CAC) values were determined fully automatically using a K100 tensiometer (KRUSS, Hamburg, Germany) equipped with two micro dosimeters by measuring the surface tension vs. lipopeptide concentration. The measurements were performed in unbuffered aqueous solution at 298 K using the Du Noüy ring method. The accuracy of the surface tension measurements was 0.1 mN/m. The critical aggregation concentration (CAC) was defined as the intersection of two lines fitted to the experimental data collected before and after the inflection point.

MIC Pseudomonas aeruginosa ATCC 9027 ([1]; planktonic culture)	MIC Klebsiella aerogenes ATCC 13048 [2]	MIC Klebsiella pneumoniae ATCC 700603 [3]	MIC Acinetobacter baumannii ATCC BAA 1605 [4]	MIC Enterococcus faecium ATCC 700221 ([5]; planktonic culture)	MIC Staphylococcus aureus ATCC 25923 ([6]; planktonic culture)	MIC C. albicans ATCC 10231 (C. albicans ATCC 10231; planktonic culture)	MIC C. glabrata ATCC 15126 (C. glabrata ATCC 15126; planktonic culture)	Adjusted Retention Time [7] [min]	SMILES	CAC [8]	Surface Tension at CAC [8] [mN/m]	MIC Pseudomonas aeruginosa ATCC 9027 ([1]; ATCC 9027, 24 h) [µg/mL]	MIC Enterococcus faecium ATCC 700221 ([5]; ATCC 700221, 24 h) [µg/mL]	MIC Staphylococcus aureus ATCC 25923 ([6]; ATCC 25923, 24 h) [µg/mL]	MIC C. albicans ATCC 10231 (C. albicans ATCC 10231; ATCC 10231, 24 h) [µg/mL]	MIC C. glabrata ATCC 15126 (C. glabrata ATCC 15126; ATCC 15126, 24 h) [µg/mL]
>256 (−/−) µg/mL	>256 (−/−) µg/mL	>256 (−/−) µg/mL	>256 (−/−) µg/mL	>256 (−/−) µg/mL	>256 (−/−) µg/mL	>256 (−/−) µg/mL	>256 (−/−) µg/mL	2.93	CCCCCCCC(=O)N[C@@H](CCCNC(=N)N)C(=O)N[C@@H](CCCNC(=N)N)C(N)=O [Compound A1, C8-RR-NH2] (Octanoyl-Arg-Arg-NH2)	–	–	–	–	–	–	–
>256 (−/−) µg/mL	>256 (−/−) µg/mL	>256 (−/−) µg/mL	>256 (−/−) µg/mL	256 (−/−) µg/mL	256 (−/−) µg/mL	>256 (−/−) µg/mL	>256 (−/−) µg/mL	7.74	CCCCCCCCCC(=O)N[C@@H](CCCNC(=N)N)C(=O)N[C@@H](CCCNC(=N)N)C(N)=O [Compound A2, C10-RR-NH2] (Decanoyl-Arg-Arg-NH2)	–	–	–	–	–	–	–
–	>256 (−/−) µg/mL	>256 (−/−) µg/mL	256 (−/−) µg/mL	–	–	–	–	12.15	CCCCCCCCCCCC(=O)N[C@@H](CCCNC(=N)N)C(=O)N[C@@H](CCCNC(=N)N)C(N)=O [Compound A3, C12-RR-NH2] (Lauroyl-Arg-Arg-NH2)	7.48 mM and 3827.3 μg/mL	38	128 (≈ 250 µM)	32 (≈ 62.5 µM)	32 (≈ 62.5 µM)	64 (≈ 125 µM)	128 (≈ 250 µM)

SMILES	MIC Pseudomonas aeruginosa ATCC 9027 ([1]; planktonic culture)	MIC Klebsiella aerogenes ATCC 13048 [2]	MIC Klebsiella pneumoniae ATCC 700603 [3]	MIC Acinetobacter baumannii ATCC BAA 1605 [4]	MIC Enterococcus faecium ATCC 700221 ([5]; planktonic culture)	MIC Staphylococcus aureus ATCC 25923 ([6]; planktonic culture)	MIC C. albicans ATCC 10231 (C. albicans ATCC 10231; planktonic culture)	MIC C. glabrata ATCC 15126 (C. glabrata ATCC 15126; planktonic culture)	Adjusted Retention Time [7] [min]	CAC [8]	Surface Tension at CAC [8] [mN/m]	MIC Pseudomonas aeruginosa ATCC 9027 ([1]; ATCC 9027, 24 h) [µg/mL]	MIC Enterococcus faecium ATCC 700221 ([5]; ATCC 700221, 24 h) [µg/mL]	MIC Staphylococcus aureus ATCC 25923 ([6]; ATCC 25923, 24 h) [µg/mL]	MIC C. albicans ATCC 10231 (C. albicans ATCC 10231; ATCC 10231, 24 h) [µg/mL]	MIC C. glabrata ATCC 15126 (C. glabrata ATCC 15126; ATCC 15126, 24 h) [µg/mL]
CCCCCCCCCCCCCC(=O)N[C@@H](CCCNC(=N)N)C(=O)N[C@@H](CCCNC(=N)N)C(N)=O [Compound A4, C14-RR-NH2] (Myristoyl-Arg-Arg-NH2)	–	256 (−/−) µg/mL	256 (−/−) µg/mL	64 µg/mL (≈ 119 µM)	–	–	–	–	16.31	1.67 mM and 899.7 μg/mL	35	32 (≈ 59.3 µM)	8 (≈ 14.8 µM)	8 (≈ 14.8 µM)	8 (≈ 14.8 µM)	16 (≈ 29.6 µM)
